Laboratory results: publication PMC5341070, “Small molecule inhibitors block Gas6-inducible TAM activation and tumorigenicity” (Scientific Reports, 2017)

Molecular target: T1, Axl (Homo sapiens, UniProt P30530+Q14393)
T1 construct: extracellular and trans-membrane domain of Axl fused to IFN-γR1 intracellular domain; with Gas6
Test: Gas6-induced hAxl/IFN-γR1 CHO reporter (pSTAT1) inhibition; sAxl-Gas6 pull-down partially inhibited
Format: cell-based

T1 sequence (P30530 26-472 limits assumed): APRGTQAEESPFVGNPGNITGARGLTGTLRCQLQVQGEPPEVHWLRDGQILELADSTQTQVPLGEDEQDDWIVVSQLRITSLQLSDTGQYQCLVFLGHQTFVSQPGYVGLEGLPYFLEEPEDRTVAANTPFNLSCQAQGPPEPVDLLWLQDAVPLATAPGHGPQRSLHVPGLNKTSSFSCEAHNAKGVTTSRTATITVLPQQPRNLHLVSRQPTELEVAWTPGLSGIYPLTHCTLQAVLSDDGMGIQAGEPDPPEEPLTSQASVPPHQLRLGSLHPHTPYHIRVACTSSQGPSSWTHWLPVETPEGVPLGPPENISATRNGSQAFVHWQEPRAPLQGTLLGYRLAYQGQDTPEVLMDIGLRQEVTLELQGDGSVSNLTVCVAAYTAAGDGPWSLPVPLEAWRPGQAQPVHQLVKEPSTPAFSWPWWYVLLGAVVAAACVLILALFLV
T1 sequence (Q14393 31-678): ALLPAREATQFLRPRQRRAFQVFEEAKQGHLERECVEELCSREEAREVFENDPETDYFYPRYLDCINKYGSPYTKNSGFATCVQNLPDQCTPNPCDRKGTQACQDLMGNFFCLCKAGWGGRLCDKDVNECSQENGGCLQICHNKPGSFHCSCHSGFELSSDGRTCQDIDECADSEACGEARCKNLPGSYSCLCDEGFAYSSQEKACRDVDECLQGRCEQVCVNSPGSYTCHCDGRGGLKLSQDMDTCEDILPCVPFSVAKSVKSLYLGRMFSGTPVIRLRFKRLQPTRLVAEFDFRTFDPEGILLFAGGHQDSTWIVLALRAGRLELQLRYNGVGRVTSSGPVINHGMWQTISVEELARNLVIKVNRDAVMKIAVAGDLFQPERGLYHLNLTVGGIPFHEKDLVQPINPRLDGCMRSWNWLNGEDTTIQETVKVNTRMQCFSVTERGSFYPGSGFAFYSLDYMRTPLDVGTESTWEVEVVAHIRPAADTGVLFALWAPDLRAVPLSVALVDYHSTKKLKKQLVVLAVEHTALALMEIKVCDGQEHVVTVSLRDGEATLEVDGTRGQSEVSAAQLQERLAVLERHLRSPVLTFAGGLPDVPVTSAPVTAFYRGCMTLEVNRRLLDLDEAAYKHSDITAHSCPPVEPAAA

## Cc1noc(C)c1CSc1ccccc1C(=O)N1CCN(c2cccc(C(F)(F)F)c2)CC1 [RU-302]
  IC50: low micromolar
